Measurements published in patent publication US20140275281A1, “Geranylgeranyl acetone and derivatives thereof for intranasal administration” (COYOTE PHARMACEUTICALS, INC., priority 2013, published 2014).

Experiment: pharmacological activity of GGA isomers (test not described)
Details: at low concentrations; statement in words only, no data given

SMILES	pharmacological activity
CC(=O)CC/C=C(/C)CC/C=C(\C)CC/C=C(\C)CCC=C(C)C (single isomer, unassigned) [cis-isomer of GGA, 5Z, 9E, 13E geranylgeranyl acetone]	at best of minimal activity
CC(=O)CC/C=C(\C)CC/C=C(\C)CC/C=C(\C)CCC=C(C)C (single isomer, unassigned) [trans-isomer of GGA, trans-GGA]	pharmacologically active
